Legend:
[1] = tested on: HaCaT cells; assay: Reactive oxygen species detection by FACS analysis (carboxy-H2DCFDA), Example 8; format: cell-based, human; details: for Median corrected Average: FACS Analysis - Reactive Oxygen Species
Description: Intracellular ROS generation was measured using the detection agent 5-(and-6)-carboxy-2',7'- dichlorodihydrofluorescein diacetate (carboxy-H2DCFDA). […] More specifically, total intracellular ROS generation was studied using 5-(and-6)-carboxy-2',7'-dichlorodihydrofluorescein diacetate (carboxy-H2DCFDA).
(§1) Powdered sunscreens were dissolved in PBS (Sigma-Aldrich, UK) at a concentration in which they can dissolve fully (0-0.3%). They were then applied (200ul/well) to wells of a 24 well plate containing a washed monolayer of cells. Cells were then irradiated and the sunscreen removed and washed post treatment.
(§2) Irradiation was carried out on cells in monolayers at a distance of 3 cm (Solar Simulator) in cold PBS or PBS + sunscreen. The plate was always placed on a cooling platform at 4°C to avoid overheating of the cells. Unirradiated samples were maintained in PBS for the same time and temperature as irradiated samples.
Detection of reactive oxygen species was performed by FACS analysis using 5-(and 6-)-carboxy-2,',7'-dichlorodihydrofluorescein diacetate (Carboy-H2-DCFDA) (Invitrogen, Paisley, UK). Carboy-H2-DCFDA is a non-fluorescent dye that is activated into a fluorescent dye by ROS cleaving acetate groups from the molecule.
Cells were grown in a 12 well plate washed twice in PBS and irradiated +/- sunscreens. Control cells were unirradiated and positive controls were treated with 0.03% hydrogen peroxide for 5 minutes. Cells were washed again twice in PBS and then 1ML of Carboy-H2-DCFDA diluted in PBS to a concentration of 5uM was added to each well and were incubated for 2 minutes in a cell culture incubator in the dark (95% air, 5% CO2, 37°C, humidified). Each well was then washed twice with PBS to remove any excess dye.
Cells were then trypsinised, centrifuged at 400g for 4 minutes at 4°C and resuspended in 0.5ml of PBS + 0.1%w/v BSA and transferred to FACS tubes. Samples were then analysed with a Becton Dickson CANTO 3. The viable proportion of the cell population was quantified by the addition of 2.5ug/ml of propidium iodide immediately before the analysis.

[2] = tested on: HaCaT keratinocytes; assay: Single-cell gel electrophoresis (comet assay) of UV-induced DNA damage; format: cell-based, human; details: for percentage change in % DNA in the tail in protected cells compared to unprotected cells: n=3, t-test; for Mean % DNA Damage: 10J/cm^2 UVA
Description: This measurement is based on the comet assay (single cell gel electrophoresis) which detects damage to nuclear DNA that result from nucleotide excision repair (NER) and nucleotide photooxidation. Using the lesion specific enzymes T4N5 that recognizes CPD and hOGG1 that recognizes 8-oxoGua, palythine was tested by comparing pure palythine compound with naturally occurring amphoteric MAA mixtures to that of industry accepted sun-filter controls.
as §1, §2
DNA damage was measured using the comet assay, using lesion specific enzymes to determine the type of damaged produced.
Glass slides are pre-coated with 1% agarose and allowed to dry. Cells were treated with UV +/- sunscreens. Positive controls were treated with ice cold 0.03% Hydrogen Peroxide for 5 minutes, negative controls were kept in the same conditions as the treatments without UV exposure.
After treatment cells were scraped gently with a cell scraper in EDTA solution to help dissociate cells and stop clumping. The cells (40ul) were then added to low melting point (LMP) agarose (160ul) and gently mixed. The final concentration of cells in the LMP agarose was 10,000 cells/100ul of agarose. Then 100ul of the agarose-cell solution was pipetted onto the pre-coated slides and a cover slip was placed onto the gels and left to set for 5-10 minutes then removed. Two replicates were placed on each slide. All steps were carried out on a cooled platform at 4°C. Slides were then places into lysis buffer (2.5M NaCl, 100mM EDTA, 10mM TRIS, 1% sodium sarcosinate, 1% Triton x-100, 10% DMSO) overnight at 4°C in the dark.
Slides were then washed in ice-cold ddH2O (2x5 mins) in the dark and once in ice cold enzyme reaction buffer (0.4mM HEPES, imMKCl, 0.005mM EDTA, 0.02mg/ml BSA) for 5 minutes. After this step different lesions were detected using lesion specific enzymes.
Cylcobutane pyrimidine dimers were measured using the T4 endonuclease V (T4endoV) enzyme. After washing, 50ul of enzyme diluted in reaction buffer (hOGG1- 3.2U/ml, T4EndoV - 0.1U/ml) or reaction buffer alone were added to each gel, a cover slip placed on top and left in a humidity chamber in the dark at 37°C for 45 minutes.
After enzyme treatment coverslips were removed and transferred into ice-cold electrophoresis buffer (10mM NaOH, 200mM EDTA, pH13 in ddH2O) and incubated at 4°C in the dark for 20 minutes. Electrophoresis was then carried out in fresh electrophoresis buffer for 25 minutes at 25V (1V/cm) 300mA, at 4°C in the dark. Slides were then washed in neutralisation buffer (0.4M TRIS, pH7.5) for 2x 10 minutes, and then in ddH2O for 2x 5 minutes and slides were allowed to dry overnight.
The DNA embedded in the slides was stained using Propidium Iodide solution (2.5ug/ml in PBS), 50ul of the solution was added to each gel and cover slip placed over. The slides were then analysed on a Zeiss Axiophot epifluorescence microscope (Carl Zeiss, Germany), with a green excitation filter (536nm) detected with a red emission at 617nm. Pictures covering the whole gel were taken, avoiding the outer edges, using a Nikon camera at a magnification of 10x. The images were then analysed using Comet Score Pro software (Tritek Corp, Summerduck, VA), typically scoring 150 individual comets per condition. […]

COC1=C(NCC(=O)O)CC(O)(CO)CC1=N (stereo not shown) [palythine]
Median corrected Average ([1]; 0.1% palythine): 36.35 | Median corrected Average ([1]; 0.3% palythine): 33.9 | total intracellular ROS generated after exposure to UVA and UVB ([1]; carboxy-H2DCFDA): significantly reduce | improved protection from DNA damage ([2]; 0.3% palythine (48% damage) versus Gelyma composition at 4% (76% damage)): 58.33% | DNA damage ([2]; 0.3% palythine, from the applicant's data): 48% | percentage change in % DNA in the tail in protected cells compared to unprotected cells ([2]; 5J/cm^2 solar simulated UVR, 0.3% palythine, figure 9): significant protection | percentage change in % DNA in the tail in protected cells compared to unprotected cells ([2]; 20J/cm^2 UVA, 0.3% palythine, figure 10): significant protection | Mean % DNA Damage ([2]; No Enzyme (single strand breaks / alkali labile sites), 0.1% palythine in PBS, mean percentage of tail DNA, n=1): 14.263% | Mean % DNA Damage ([2]; No Enzyme (single strand breaks / alkali labile sites), 0.3% palythine in PBS, mean percentage of tail DNA, n=1): 9.914% | Mean % DNA Damage ([2]; T4N5 (cyclobutane pyrimidine dimers, CPDs), 0.1% palythine): 26.328% | Mean % DNA Damage ([2]; T4N5 (cyclobutane pyrimidine dimers, CPDs), 0.3% palythine): 15.345% | protection for the DNA lesions tested (general damage, CPD and 8oxoGua) ([2]; comet assay and IHC-IF, palythine at 0.3% or greater, UVA and SSR induced damage, p=<0.05): significant protection | DNA damage caused by UVA and UVB exposure ([2]; lesion specific enzymes T4N5 (CPD) and hOGG1 (8-oxoGua)): significantly reduces DNA damage
